From patent US10696693B2, “Fused imidazole derivatives as TGF-beta inhibitors” (Rigel Pharmaceuticals, Inc., priority 2014, dated 2020)
Like-named read-outs stand apart in the source and are kept apart here.

Columns and labels:
GDF8 = test: AlphaScreen SureFire p-SMAD3 (Ser423/425) assay, GDF8-stimulated cells; type: cell-based
Procedure, shortened: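 A SureFire AlphaScreen assay measured phosphorylation of endogenous SMAD-3 at Ser423/425 in cell lysates. Cells were treated with three-fold serially diluted compounds in DMSO for about 10 minutes, then stimulated with GDF8. After medium removal, cells were lysed in 1× Lysis Buffer (about 25 μL) with gentle shaking for 5-10 minutes.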

TGF-β = test: AlphaScreen SureFire p-SMAD3 (Ser423/425) assay, TGF-β-stimulated cells; type: cell-based
Procedure, shortened: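 The p-SMAD-3 (Ser423/425) SureFire assay measured phosphorylation of endogenous SMAD-3 in cell lysates. Cells were plated overnight in collagen-coated plates, exposed to three-fold serially diluted compounds for about 10 minutes, then stimulated with TGFβ. Lysates (5 μL) received acceptor bead mix for 2 hours, then donor beads for 1½ hours before AlphaScreen reading.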

[1] = Mus musculus, MPC-11, p-SMAD3 (Ser423/425) AlphaScreen in cell lysate, MPC11, GDF8 stimulation, read-out: GDF8: inhibition of GDF8 signaling, GDF pSMAD (MPC11)
[2] = Mus musculus, p-SMAD3 (Ser423/425) AlphaScreen in cell lysate, MPC-11, TGF-β stimulation, read-out: TGF-β: inhibition of TGF-β signaling, TGF-β pSMAD (MPC-11)
[3] = Mus musculus, MPC-11, read-out: GDF8: inhibition of GDF8 signaling, GDF pSMAD (MPC11), p-SMAD3 (Ser423/425) AlphaScreen in cell lysate, GDF8 stimulation
[4] = Mus musculus, MPC-11, read-out: TGF-β: inhibition of TGF-β signaling, TGF-β pSMAD (MPC-11), p-SMAD3 (Ser423/425) AlphaScreen in cell lysate, TGF-β stimulation
[5] = read-out: GDF8: inhibition of GDF8 signaling, GDF pSMAD (MPC11), p-SMAD3 (Ser423/425) AlphaScreen in cell lysate, GDF8 stimulation
[6] = read-out: TGF-β: inhibition of TGF-β signaling, TGF-β pSMAD (MPC-11), p-SMAD3 (Ser423/425) AlphaScreen in cell lysate, TGF-β stimulation

Row | SMILES | IC50 (GDF8; [1]) | IC50 (TGF-β; [2]) | IC50 (GDF8; [3]) | IC50 (TGF-β; [4]) | further results
1 | Fc1cc(Cl)c(-c2nc3n(c2-c2ccc4ncccc4c2)CCC3)cc1F [Compound 290, 6-(2-(2-chloro-4,5-difluorophenyl)-6,7-dihydro-5H-pyrrolo[1,2-a]imidazol-3-yl)quinoline] | 100 to 1000 nM | > 1000 nM |  |  | 
2 | Fc1cc(Cl)c(-c2nc3n(c2-c2ccc4nccnc4c2)CCC3)cc1F [Compound 291, 6-(2-(2-chloro-4,5-difluorophenyl)-6,7-dihydro-5H-pyrrolo[1,2-a]imidazol-3-yl)quinoxaline] |  |  | 50 to 100 nM | 100 to 1000 nM | 
3 | Cc1cc(F)ccc1-c1nc2n(c1-c1ccc3[nH]ncc3c1)CCC2 [Compound 292, 5-(2-(4-fluoro-2-methylphenyl)-6,7-dihydro-5H-pyrrolo[1,2-a]imidazol-3-yl)-1H-indazole] |  |  | > 1000 nM | > 1000 nM | 
4 | Cc1cc(F)ccc1-c1nc2n(c1-c1ccc3ncsc3c1)CCC2 [Compound 293, 6-(2-(4-fluoro-2-methylphenyl)-6,7-dihydro-5H-pyrrolo[1,2-a]imidazol-3-yl)benzo[d]thiazole] | 100 to 1000 nM | 100 to 1000 nM |  |  | 
5 | Cc1cc(F)ccc1-c1nc2n(c1-c1ccc3nccnc3c1)CCC2 [Compound 294, 6-(2-(4-fluoro-2-methylphenyl)-6,7-dihydro-5H-pyrrolo[1,2-a]imidazol-3-yl)quinoxaline] |  |  | > 1000 nM | > 1000 nM | 
6 | Cc1cc(F)ccc1-c1nc2n(c1-c1ccc3ncccc3c1)CCC2 [Compound 295, 6-(2-(4-fluoro-2-methylphenyl)-6,7-dihydro-5H-pyrrolo[1,2-a]imidazol-3-yl)quinoline] | > 1000 nM | > 1000 nM |  |  | 
7 | Cc1cc(F)c(Cl)cc1-c1nc2n(c1-c1ccc3[nH]ncc3c1)CCC2 [Compound 296, 5-(2-(5-chloro-4-fluoro-2-methylphenyl)-6,7-dihydro-5H-pyrrolo[1,2-a]imidaol-3-yl)-1H-indazole] | 100 to 1000 nM | > 1000 nM |  |  | 
8 | Cc1cc(F)c(Cl)cc1-c1nc2n(c1-c1ccc3ncsc3c1)CCC2 [Compound 297, 6-(2-(5-chloro-4-fluoro-2-methylphenyl)-6,7-dihydro-5H-pyrrolo[1,2-a]imidazol-3-yl)benzo[d]thiazole] | 100 to 1000 nM | 100 to 1000 nM |  |  | 
9 | Cc1cc(F)c(Cl)cc1-c1nc2n(c1-c1ccc3nccnc3c1)CCC2 [Compound 298, 6-(2-(5-chloro-4-fluoro-2-methylphenyl)-6,7-dihydro-5H-pyrrolo[1,2-a]imidazol-3-yl)quinoxaline] |  |  | 100 to 1000 nM | > 1000 nM | 
10 | Cc1cc(F)c(Cl)cc1-c1nc2n(c1-c1ccc3ncccc3c1)CCC2 [Compound 299, 6-(2-(5-chloro-4-fluoro-2-methylphenyl)-6,7-dihydro-5H-pyrrolo[1,2-a]imidazol-3-yl)quinoline] |  |  | 100 to 1000 nM | > 1000 nM | 
11 | Cc1ccc(F)cc1-c1nc2n(c1-c1ccc3[nH]ncc3c1)CCC2 [Compound 300, 5-(2-(5-fluoro-2-methylphenyl)-6,7-dihydro-5H-pyrrolo[1,2-a]imidazol-3-yl)-1H-indazole] |  |  | > 1000 nM | > 1000 nM | 
12 | Cc1ccc(F)cc1-c1nc2n(c1-c1ccc3ncsc3c1)CCC2 [Compound 301, 6-(2-(5-fluoro-2-methylphenyl)-6,7-dihydro-5H-pyrrolo[1,2-a]imidazol-3-yl)benzo[d]thiazole] |  |  | 100 to 1000 nM | > 1000 nM | 
13 | Cc1ccc(F)cc1-c1nc2n(c1-c1ccc3nccnc3c1)CCC2 [Compound 302, 6-(2-(5-fluoro-2-methylphenyl)-6,7-dihydro-5H-pyrrolo[1,2-a]imidazol-3-yl)quinoxaline] |  |  | > 1000 nM | > 1000 nM | 
14 | Cc1ccc(F)cc1-c1nc2n(c1-c1ccc3ncccc3c1)CCC2 [Compound 303] | > 1000 nM | > 1000 nM |  |  | 
15 | Cc1ccccc1-c1nc2n(c1-c1ccc3[nH]ncc3c1)CCC2 [Compound 304, 5-(2-(o-tolyl)-6,7-dihydro-5H-pyrrolo[1,2-a]imidazol-3-yl)-1H-indazole] | > 1000 nM | > 1000 nM |  |  | 
16 | Cc1ccccc1-c1nc2n(c1-c1ccc3ncsc3c1)CCC2 [Compound 305, 6-(2-(o-tolyl)-6,7-dihydro-5H-pyrrolo[1,2-a]imidazol-3-yl)benzo[d]thiazole] | 100 to 1000 nM | > 1000 nM |  |  | 

Row | SMILES | IC50 (GDF8; [1]) | IC50 (TGF-β; [2]) | IC50 (GDF8; [3]) | IC50 (TGF-β; [4]) | further results
17 | Cc1ccccc1-c1nc2n(c1-c1ccc3nccnc3c1)CCC2 [Compound 306, 6-(2-(o-tolyl)-6,7-dihydro-5H-pyrrolo[1,2-a]imidazol-3-yl)quinoxaline] | > 1000 nM | > 1000 nM |  |  | 
18 | Cc1ccccc1-c1nc2n(c1-c1ccc3ncccc3c1)CCC2 [Compound 307, 6-(2-(o-tolyl)-6,7-dihydro-5H-pyrrolo[1,2-a]imidazol-3-yl)quinoline] | > 1000 nM | > 1000 nM |  |  | 
19 | Cc1cc(-c2nc3n(c2-c2ccc4[nH]ncc4c2)CCC3)c(C)cc1F [Compound 308, 5-(2-(4-fluoro-2,5-dimethylphenyl)-6,7-dihydro-5H-pyrrolo[1,2-a]imidaol-3-yl)-1H-indazole] | 100 to 1000 nM | > 1000 nM |  |  | 
20 | Cc1cc(-c2nc3n(c2-c2ccc4ncsc4c2)CCC3)c(C)cc1F [Compound 309, 6-(2-(4-fluoro-2,5-dimethylphenyl)-6,7-dihydro-5H-pyrrolo[1,2-a]imidazol-3-yl)benzo[d]thiazole] |  |  | 100 to 1000 nM | 100 to 1000 nM | 
21 | Cc1cc(-c2nc3n(c2-c2ccc4nccnc4c2)CCC3)c(C)cc1F [Compound 310, 6-(2-(4-fluoro-2,5-dimethylphenyl)-6,7-dihydro-5H-pyrrolo[1,2-a]imidazol-3-yl)quinoxaline] |  |  | 100 to 1000 nM | > 1000 nM | 
22 | Cc1cc(-c2nc3n(c2-c2ccc4ncccc4c2)CCC3)c(C)cc1F [Compound 311, 6-(2-(4-fluoro-2,5-dimethylphenyl)-6,7-dihydro-5H-pyrrolo[1,2-a]imidazol-3-yl)quinoline] | 100 to 1000 nM | > 1000 nM |  |  | 
23 | Cc1c(F)ccc(-c2nc3n(c2-c2ccc4[nH]ncc4c2)CCC3)c1Cl [Compound 312, 5-(2-(2-chloro-4-fluoro-3-methylphenyl)-6,7-dihydro-5H-pyrrolo[1,2-a]imidazol-3-yl)-1H-indazole] |  |  | > 1000 nM | > 1000 nM | 
24 | Cc1c(F)ccc(-c2nc3n(c2-c2ccc4ncsc4c2)CCC3)c1Cl [Compound 313, 6-(2-(2-chloro-4-fluoro-3-methylphenyl)-6,7-dihydro-5H-pyrrolo[1,2-a]imidazol-3-yl)benzo[d]thiazole] |  |  | 100 to 1000 nM | 100 to 1000 nM | 
25 | Cc1c(F)ccc(-c2nc3n(c2-c2ccc4nccnc4c2)CCC3)c1Cl [Compound 314, 6-(2-(2-chloro-4-fluoro-3-methylphenyl)-6,7-dihydro-5H-pyrrolo[1,2-a]imidazol-3-yl)quinoxaline] | > 1000 nM | > 1000 nM |  |  | 
26 | Cc1c(F)ccc(-c2nc3n(c2-c2ccc4ncccc4c2)CCC3)c1Cl [Compound 315, 6-(2-(2-chloro-4-fluoro-3-methylphenyl)-6,7-dihydro-5H-pyrrolo[1,2-a]imidazol-3-yl)quinoline] |  |  | > 1000 nM | > 1000 nM | 
27 | Cc1cc(-c2nc3n(c2-c2ccc4[nH]ncc4c2)CCC3)c(Cl)cc1F [Compound 316, 5-(2-(2-chloro-4-fluoro-5-methylphenyl)-6,7-dihydro-5H-pyrrolo[1,2-a]imidazol-3-yl)-1H-indazole] |  |  | 100 to 1000 nM | 100 to 1000 nM | 
28 | Cc1cc(-c2nc3n(c2-c2ccc4ncsc4c2)CCC3)c(Cl)cc1F [Compound 317, 6-(2-(2-chloro-4-fluoro-5-methylphenyl)-6,7-dihydro-5H-pyrrolo[1,2-a]imidazol-3-yl)benzo[d]thiazole] |  |  |  |  | IC50 (GDF8; [5]): 50 to 100 nM; IC50 (TGF-β; [6]): 100 to 1000 nM
29 | Cc1cc(-c2nc3n(c2-c2ccc4nccnc4c2)CCC3)c(Cl)cc1F [Compound 318, 6-(2-(2-chloro-4-fluoro-5-methylphenyl)-6,7-dihydro-5H-pyrrolo[1,2-a]imidazol-3-yl)quinoxaline] |  |  |  |  | IC50 (GDF8; [5]): 50 to 100 nM; IC50 (TGF-β; [6]): 100 to 1000 nM
30 | Cc1cc(-c2nc3n(c2-c2ccc4ncccc4c2)CCC3)c(Cl)cc1F [Compound 319, 6-(2-(2-chloro-4-fluoro-5-methylphenyl)-6,7-dihydro-5H-pyrrolo[1,2-a]imidazol-3-yl)quinoline] |  |  |  | > 1000 nM | IC50 (GDF8; [5]): 100 to 1000 nM
31 | O=S(=O)(Nc1cccc(-c2nc3n(c2-c2ccc4[nH]ncc4c2)CCC3)c1)c1ccccc1F [Compound 320, N-(3-(3-(1H-indazol-5-yl)-6,7-dihydro-5H-pyrrolo[1,2-a]imidazol-2-yl)phenyl)-2-fluorobenzenesulfonamide] |  |  | > 1000 nM | > 1000 nM | 
32 | Cc1cc(-c2nc3n(c2-c2ccc4nccnc4c2)CCC3)c(Cl)cc1F [Compound 321, 6-(2-(2-chloro-4-fluoro-5-methylphenyl)-6,7-dihydro-5H-pyrrolo[1,2-a]imidazol-3-yl)quinoxaline] |  |  |  |  | IC50 (GDF8; [5]): > 1000 nM; IC50 (TGF-β; [6]): > 1000 nM
